Assay results published in patent US10214507B2, “Carbazole-containing amides, carbamates, and ureas as cryptochrome modulators” (Reset Therapeutics, Inc., priority 2014, dated 2019).

Tested on: stable U20S reporter cells harboring Per2-dLuc
Experiment: Per2 assay for evaluating the potency of test compounds (circadian luciferase reporter)
Format: cell-based
Details: amplitude of Per2-dLuc luminescence vs log concentration
Method: Compounds were screened by using a high-throughput circadian assay system as previously described in Zhang, E. E. et al. Cell, 2009, 139, 199-210. In brief, stable U20S reporter cells harboring Per2-dLuc were plated at a density of 30,000 cells/well in Corning 96-well, solid white, flat bottom, TC-treated microplates (Corning®), and incubated for 48 hours at 37° C. in the presence of 5% CO2 in a medium of Dulbecco's Modified Eagle Medium (DMEM) supplemented with 10% fetal bovine serum (FBS) and penicillin (100 units/mL)-streptomycin (100 μg/mL). […] DMSO stocks are then serially diluted in DMSO, typically diluting 3-fold for each dilution step. Following the 48 h period, cell culture medium is removed from plated cells and cells are synchronized with 200 μL/well of complete cell culture medium (described above), supplemented with 5 μM forskolin (Tocris®) and 1 mM beetle luciferin (Promega®). Immediately following synchronization, 1 μL of compound dilution is added to each well. Plates are sealed, shaken briefly, and gene expression was monitored by measuring luminescence (Tecan® Infinite M200 or Tecan® Infinite M200 Pro) continuously for a minimum of 3 days at 35° C. Raw luminescence data (counts) are first analyzed using Multicycle™ software (Actimetrics, Inc.) to determine the amplitude (amp), period, and phase (phz) for each compound concentration. The period length for control wells (i.e. no compound, DMSO only) should be 26-30 h. Amp data are then plotted against the logarithm compound concentration (M) and analyzed by nonlinear regression analysis to determine the EC50.

| Compound | EC50 [nM] |
| --- | --- |
| C[C@@H]1CCC(=O)N1C[C@H](O)Cn1c2ccccc2c2ccccc21 [Compound 111, (R)-1-((R)-3-(9H-carbazol-9-yl)-2-hydroxypropyl)-5-methylpyrrolidin-2-one] | 95 |
| O=C1N(CC(O)Cn2c3ccc(F)cc3c3cc(F)ccc32)CCN1C1CCCCC1 (stereo not drawn) [Compound 88, 1-cyclohexyl-3-(3-(3,6-difluoro-9H-carbazol-9-yl)-2-hydroxypropyl)imidazolidin-2-one] | 310 |
| CC(O)(CN1CCC(F)(F)C1=O)Cn1c2ccc(F)cc2c2cc(F)ccc21 (stereo not drawn) [Compound 59, 1-(3-(3,6-difluoro-9H-carbazol-9-yl)-2-hydroxy-2-methylpropyl)-3,3-difluoropyrrolidin-2-one] | 986 |
| O=C1N(CC(O)Cn2c3ccc(F)cc3c3cc(F)ccc32)CCN1C1CCC1 (stereo not drawn) [Compound 93, 1-cyclobutyl-3-(3-(3,6-difluoro-9H-carbazol-9-yl)-2-hydroxypropyl)imidazolidin-2-one] | 129 |
| O=C1C(c2ccccc2)CCCN1CC(O)Cn1c2ccc(F)cc2c2cc(F)ccc21 (stereo not drawn) [Compound 19, 1-(3-(3,6-difluoro-9H-carbazol-9-yl)-2-hydroxypropyl)-3-phenylpiperidin-2-one] | 547 |
| C[C@H]1CCC(=O)N1C[C@H](O)Cn1c2ccc(F)cc2c2cc(F)ccc21 [Compound 110, (S)-1-((R)-3-(3,6-difluoro-9H-carbazol-9-yl)-2-hydroxypropyl)-5-methylpyrrolidin-2-one] | 830 |
| O=C1[C@H](F)CCN1C[C@H](O)Cn1c2ccccc2c2ccccc21 [Compound 121, (R)-1-((R)-3-(9H-carbazol-9-yl)-2-hydroxypropyl)-3-fluoropyrrolidin-2-one] | 210 |
| CC1CCCN(CC(C)(O)Cn2c3ccc(F)cc3c3cc(F)ccc32)C1=O (stereo not drawn) [Compound 28, 1-(3-(3,6-difluoro-9H-carbazol-9-yl)-2-hydroxy-2-methylpropyl)-3-methylpiperidin-2-one] | 824 |
| CC1CCC(=O)N(CC(O)Cn2c3ccc(F)cc3c3cc(F)ccc32)C1 (stereo not drawn) [Compound 37, 1-(3-(3,6-difluoro-9H-carbazol-9-yl)-2-hydroxypropyl)-5-methylpiperidin-2-one] | 224 |
| C[C@](O)(CN1CC[C@@H](F)C1=O)Cn1c2ccccc2c2ccccc21 [Compound 127, (R)-1-((R)-3-(9H-carbazol-9-yl)-2-hydroxy-2-methylpropyl)-3-fluoropyrrolidin-2-one] | 535 |
| CC1CN(C)C(=O)N(CC(O)Cn2c3ccc(F)cc3c3cc(F)ccc32)C1 (stereo not drawn) [Compound 94, 1-(3-(3,6-difluoro-9H-carbazol-9-yl)-2-hydroxypropyl)-3,5-dimethyltetrahydropyrimidin-2(1H)-one] | 833 |
| CC1CCN(CC(O)Cn2c3ccc(F)cc3c3cc(F)ccc32)C(=O)N1C (stereo not drawn) [Compound 101, 1-(3-(3,6-difluoro-9H-carbazol-9-yl)-2-hydroxypropyl)-3,4-dimethyltetrahydropyrimidin-2(1H)-one] | 417 |
| O=C1CC(C2CC2)CN1CC(O)Cn1c2ccc(F)cc2c2cc(F)ccc21 (stereo not drawn) [Compound 42, 4-cyclopropyl-1-(3-(3,6-difluoro-9H-carbazol-9-yl)-2-hydroxypropyl)pyrrolidin-2-one] | 420 |
| CCC1CCC(=O)N1CC(O)Cn1c2ccc(F)cc2c2cc(F)ccc21 (stereo not drawn) [Compound 32, 1-(3-(3,6-difluoro-9H-carbazol-9-yl)-2-hydroxypropyl)-5-ethylpyrrolidin-2-one] | 539 |
| O=C1N(CC(O)Cn2c3ccc(F)cc3c3cc(F)ccc32)CCN1c1ccccc1 (stereo not drawn) [Compound 89, 1-(3-(3,6-difluoro-9H-carbazol-9-yl)-2-hydroxypropyl)-3-phenylimidazolidin-2-one] | 438 |
| CC1CCN(CC(O)Cn2c3ccc(F)cc3c3cc(F)ccc32)C(=O)C1 (stereo not drawn) [Compound 49, 1-(3-(3,6-difluoro-9H-carbazol-9-yl)-2-hydroxypropyl)-4-methylpiperidin-2-one] | 137 |
| CC(O)(CN1CCC(c2ccccc2)C1=O)Cn1c2ccc(F)cc2c2cc(F)ccc21 (stereo not drawn) [Compound 54, 1-(3-(3,6-difluoro-9H-carbazol-9-yl)-2-hydroxy-2-methylpropyl)-3-phenylpyrrolidin-2-one] | 808 |
| O=C1[C@@H]2CC[C@@H](C2)N1C[C@H](O)Cn1c2ccc(F)cc2c2cc(F)ccc21 [Compound 104, (1S,4R)-2-((R)-3-(3,6-difluoro-9H-carbazol-9-yl)-2-hydroxypropyl)-2-azabicyclo[2.2.1]heptan-3-one] | 115 |
| C[C@@H]1CCC(=O)N1C[C@@H](O)Cn1c2ccccc2c2ccccc21 [Compound 113, (R)-1-((S)-3-(9H-carbazol-9-yl)-2-hydroxypropyl)-5-methylpyrrolidin-2-one] | 948 |
| CCC1CCC(=O)N1CC(C)(O)Cn1c2ccc(F)cc2c2cc(F)ccc21 (stereo not drawn) [Compound 33, 1-(3-(3,6-difluoro-9H-carbazol-9-yl)-2-hydroxy-2-methylpropyl)-5-ethylpyrrolidin-2-one] | 625 |
| CC1CCCN(CC(O)Cn2c3ccc(F)cc3c3cc(F)ccc32)C1=O (stereo not drawn) [Compound 27, 1-(3-(3,6-difluoro-9H-carbazol-9-yl)-2-hydroxypropyl)-3-methylpiperidin-2-one] | 478 |
| CC1CCC(=O)N(CC(O)Cn2c3ccccc3c3ccccc32)C1 (stereo not drawn) [Compound 62, 1-(3-(9H-carbazol-9-yl)-2-hydroxypropyl)-5-methylpiperidin-2-one] | 370 |
| CN1CCCN(CC(O)Cn2c3ccccc3c3ccccc32)C1=O (stereo not drawn) [Compound 2, 1-(3-(9H-carbazol-9-yl)-2-hydroxypropyl)-3-methyltetrahydropyrimidin-2(1H)-one] | 736 |
| CC(O)(CN1CCCN(C2CCCCC2)C1=O)Cn1c2ccc(F)cc2c2cc(F)ccc21 (stereo not drawn) [Compound 82, 1-cyclohexyl-3-(3-(3,6-difluoro-9H-carbazol-9-yl)-2-hydroxy-2-methylpropyl)tetrahydropyrimidin-2(1H)-one] | 1190 |
| C[C@H]1CCC(=O)N(C[C@@H](O)Cn2c3ccccc3c3ccccc32)C1 [Compound 132, (S)-1-((S)-3-(9H-carbazol-9-yl)-2-hydroxypropyl)-5-methylpiperidin-2-one] | 1130 |
| CC1CCCN(CC(O)Cn2c3ccccc3c3ccccc32)C1=O (stereo not drawn) [Compound 64, 1-(3-(9H-carbazol-9-yl)-2-hydroxypropyl)-3-methylpiperidin-2-one] | 462 |
| O=C1NCCN1CC(O)Cn1c2ccccc2c2ccccc21 (stereo not drawn) [Compound 84, 1-(3-(9H-carbazol-9-yl)-2-hydroxypropyl)imidazolidin-2-one] | 325 |
| CC1CCN(CC(C)(O)Cn2c3ccc(F)cc3c3cc(F)ccc32)C(=O)C1 (stereo not drawn) [Compound 36, 1-(3-(3,6-difluoro-9H-carbazol-9-yl)-2-hydroxy-2-methylpropyl)-4-methylpiperidin-2-one] | 760 |
| C[C@H]1CCN(C[C@H](O)Cn2c3ccc(F)cc3c3cc(F)ccc32)C1=O [Compound 115, (S)-1-((R)-3-(3,6-difluoro-9H-carbazol-9-yl)-2-hydroxypropyl)-3-methylpyrrolidin-2-one] | 500 |
| CC(O)(CN1CCCN(C2CCC2)C1=O)Cn1c2ccc(F)cc2c2cc(F)ccc21 (stereo not drawn) [Compound 81, 1-cyclobutyl-3-(3-(3,6-difluoro-9H-carbazol-9-yl)-2-hydroxy-2-methylpropyl)tetrahydropyrimidin-2(1H)-one] | 816 |
